The source made the active and inactive calls.

The target in assay [1] is Heat shock cognate 71 kDa protein (Homo sapiens, UniProt P11142). In words: In Vitro Hsc70 Dose Response Fluorescence Polarization Assay. [Related pubchem assays: 1072 ]. (In general: Polarisation of emitted light reports the rotation of a fluorescent probe.)
Assay [2] concerns BJ. In words: cells. Conditions: Homo sapiens. It is filed as functional, cell-based.
Assay [3] concerns BJ. In words: BJ-TERT-LT-ST fibroblast viability loss – cell-based, RAS-independent, luminescence, dose response (AID 1935).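 Further: BJ fibroblasts immortalized with TERT plus LT and ST oncogenes.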 The following applies: Homo sapiens. It is filed as functional.
Assay [4] addresses Mitogen-activated protein kinase kinase kinase 10 (Homo sapiens, UniProt Q02779). In words: Navigating the Kinome. Panel member name: MAP3K10. Type of assay: functional.
Assay [5] has as its target Tyrosine-protein kinase receptor UFO (Homo sapiens, UniProt P30530). It is filed as functional.
The target of assay [6] is Mitogen-activated protein kinase kinase kinase kinase 5 (Homo sapiens, UniProt Q9Y4K4). It is filed as functional.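 Further: measured as one member of a kinome-spanning kinase panel.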
Mitogen-activated protein kinase kinase kinase kinase 5, sequence (Q9Y4K4 whole entry, the tested form may be a part): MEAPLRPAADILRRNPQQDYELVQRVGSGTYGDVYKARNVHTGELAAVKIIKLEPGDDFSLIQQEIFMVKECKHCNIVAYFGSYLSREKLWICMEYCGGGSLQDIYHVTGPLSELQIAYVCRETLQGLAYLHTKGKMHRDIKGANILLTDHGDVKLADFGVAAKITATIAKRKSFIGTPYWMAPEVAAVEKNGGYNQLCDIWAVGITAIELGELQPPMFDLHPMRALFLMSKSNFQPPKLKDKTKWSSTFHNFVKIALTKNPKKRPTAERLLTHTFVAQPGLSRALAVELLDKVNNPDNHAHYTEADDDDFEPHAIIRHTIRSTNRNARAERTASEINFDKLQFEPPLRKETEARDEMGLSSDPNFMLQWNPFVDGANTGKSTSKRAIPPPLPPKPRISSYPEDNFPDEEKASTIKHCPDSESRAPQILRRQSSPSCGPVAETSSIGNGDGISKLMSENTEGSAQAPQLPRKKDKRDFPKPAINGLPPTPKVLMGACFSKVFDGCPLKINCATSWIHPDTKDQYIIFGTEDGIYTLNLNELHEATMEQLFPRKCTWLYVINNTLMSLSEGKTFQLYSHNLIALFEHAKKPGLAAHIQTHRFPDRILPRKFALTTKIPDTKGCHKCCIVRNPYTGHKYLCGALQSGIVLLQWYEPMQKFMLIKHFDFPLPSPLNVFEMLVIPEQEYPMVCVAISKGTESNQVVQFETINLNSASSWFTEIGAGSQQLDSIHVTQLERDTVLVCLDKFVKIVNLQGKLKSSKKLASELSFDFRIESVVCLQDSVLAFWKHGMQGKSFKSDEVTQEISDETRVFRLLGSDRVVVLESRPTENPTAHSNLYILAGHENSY
The target in another assay is LIM domain kinase 1 (Homo sapiens, UniProt P53667). In words: Navigating the Kinome. Panel member name: LIMK1. It is filed as functional.
LIM domain kinase 1, sequence (P53667 whole entry, the tested form may be a part): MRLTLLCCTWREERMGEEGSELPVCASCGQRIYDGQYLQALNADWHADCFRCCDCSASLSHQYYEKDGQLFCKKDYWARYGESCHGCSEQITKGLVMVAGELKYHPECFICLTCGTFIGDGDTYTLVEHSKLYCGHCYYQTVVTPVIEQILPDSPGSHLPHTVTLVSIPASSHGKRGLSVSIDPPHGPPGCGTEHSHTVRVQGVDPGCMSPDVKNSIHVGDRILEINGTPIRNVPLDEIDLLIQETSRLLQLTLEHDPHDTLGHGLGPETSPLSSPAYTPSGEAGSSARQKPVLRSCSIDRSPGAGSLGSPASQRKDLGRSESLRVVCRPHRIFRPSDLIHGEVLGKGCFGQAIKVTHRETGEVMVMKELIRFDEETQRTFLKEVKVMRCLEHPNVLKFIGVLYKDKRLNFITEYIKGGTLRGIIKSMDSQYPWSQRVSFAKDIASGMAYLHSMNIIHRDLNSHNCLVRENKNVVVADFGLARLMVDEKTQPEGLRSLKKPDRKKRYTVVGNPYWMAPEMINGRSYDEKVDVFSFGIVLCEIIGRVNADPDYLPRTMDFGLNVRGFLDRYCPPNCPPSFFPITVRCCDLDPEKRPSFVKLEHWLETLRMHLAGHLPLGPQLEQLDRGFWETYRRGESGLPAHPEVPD

Heat shock cognate 71 kDa protein, sequence (P11142 whole entry): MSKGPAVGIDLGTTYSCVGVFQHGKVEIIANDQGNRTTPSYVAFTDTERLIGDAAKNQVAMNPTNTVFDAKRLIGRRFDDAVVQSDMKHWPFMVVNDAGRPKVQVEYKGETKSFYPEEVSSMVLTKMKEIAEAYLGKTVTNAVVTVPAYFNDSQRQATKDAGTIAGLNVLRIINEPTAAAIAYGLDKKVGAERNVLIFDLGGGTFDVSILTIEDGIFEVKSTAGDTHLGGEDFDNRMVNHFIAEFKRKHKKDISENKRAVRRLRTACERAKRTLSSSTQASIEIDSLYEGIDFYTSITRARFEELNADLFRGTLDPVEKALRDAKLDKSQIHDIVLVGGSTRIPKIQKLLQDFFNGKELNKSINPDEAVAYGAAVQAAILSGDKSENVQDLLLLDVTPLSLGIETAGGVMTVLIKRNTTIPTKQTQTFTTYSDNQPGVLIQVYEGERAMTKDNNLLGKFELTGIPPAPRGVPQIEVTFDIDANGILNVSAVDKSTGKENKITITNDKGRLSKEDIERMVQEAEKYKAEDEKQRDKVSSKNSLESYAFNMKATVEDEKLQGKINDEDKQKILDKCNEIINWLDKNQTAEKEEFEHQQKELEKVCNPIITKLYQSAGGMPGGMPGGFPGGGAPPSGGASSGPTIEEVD
Tyrosine-protein kinase receptor UFO, sequence (P30530 whole entry): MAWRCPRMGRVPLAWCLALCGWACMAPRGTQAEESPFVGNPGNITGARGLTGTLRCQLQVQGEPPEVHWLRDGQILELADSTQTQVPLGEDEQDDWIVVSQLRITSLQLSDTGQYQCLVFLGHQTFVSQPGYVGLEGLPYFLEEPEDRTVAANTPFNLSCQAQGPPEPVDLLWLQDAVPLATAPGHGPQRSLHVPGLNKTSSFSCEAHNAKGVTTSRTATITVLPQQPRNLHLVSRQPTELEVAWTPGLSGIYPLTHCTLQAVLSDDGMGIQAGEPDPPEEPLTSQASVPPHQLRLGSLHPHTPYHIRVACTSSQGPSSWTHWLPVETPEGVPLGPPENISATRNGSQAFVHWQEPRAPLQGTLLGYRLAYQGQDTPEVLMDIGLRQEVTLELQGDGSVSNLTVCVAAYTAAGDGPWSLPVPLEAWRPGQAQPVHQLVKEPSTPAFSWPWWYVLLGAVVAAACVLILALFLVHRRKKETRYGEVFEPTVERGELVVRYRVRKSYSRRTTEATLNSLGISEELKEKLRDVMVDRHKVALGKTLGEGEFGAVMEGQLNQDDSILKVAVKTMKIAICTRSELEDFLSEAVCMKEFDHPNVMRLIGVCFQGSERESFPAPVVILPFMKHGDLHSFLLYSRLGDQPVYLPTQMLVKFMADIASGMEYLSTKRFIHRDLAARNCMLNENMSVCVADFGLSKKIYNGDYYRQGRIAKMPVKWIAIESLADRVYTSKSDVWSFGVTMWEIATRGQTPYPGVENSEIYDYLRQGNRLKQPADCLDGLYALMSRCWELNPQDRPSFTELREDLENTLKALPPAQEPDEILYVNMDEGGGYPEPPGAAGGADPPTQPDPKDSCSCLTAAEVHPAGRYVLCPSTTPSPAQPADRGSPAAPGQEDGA
Mitogen-activated protein kinase kinase kinase 10, sequence (Q02779 whole entry): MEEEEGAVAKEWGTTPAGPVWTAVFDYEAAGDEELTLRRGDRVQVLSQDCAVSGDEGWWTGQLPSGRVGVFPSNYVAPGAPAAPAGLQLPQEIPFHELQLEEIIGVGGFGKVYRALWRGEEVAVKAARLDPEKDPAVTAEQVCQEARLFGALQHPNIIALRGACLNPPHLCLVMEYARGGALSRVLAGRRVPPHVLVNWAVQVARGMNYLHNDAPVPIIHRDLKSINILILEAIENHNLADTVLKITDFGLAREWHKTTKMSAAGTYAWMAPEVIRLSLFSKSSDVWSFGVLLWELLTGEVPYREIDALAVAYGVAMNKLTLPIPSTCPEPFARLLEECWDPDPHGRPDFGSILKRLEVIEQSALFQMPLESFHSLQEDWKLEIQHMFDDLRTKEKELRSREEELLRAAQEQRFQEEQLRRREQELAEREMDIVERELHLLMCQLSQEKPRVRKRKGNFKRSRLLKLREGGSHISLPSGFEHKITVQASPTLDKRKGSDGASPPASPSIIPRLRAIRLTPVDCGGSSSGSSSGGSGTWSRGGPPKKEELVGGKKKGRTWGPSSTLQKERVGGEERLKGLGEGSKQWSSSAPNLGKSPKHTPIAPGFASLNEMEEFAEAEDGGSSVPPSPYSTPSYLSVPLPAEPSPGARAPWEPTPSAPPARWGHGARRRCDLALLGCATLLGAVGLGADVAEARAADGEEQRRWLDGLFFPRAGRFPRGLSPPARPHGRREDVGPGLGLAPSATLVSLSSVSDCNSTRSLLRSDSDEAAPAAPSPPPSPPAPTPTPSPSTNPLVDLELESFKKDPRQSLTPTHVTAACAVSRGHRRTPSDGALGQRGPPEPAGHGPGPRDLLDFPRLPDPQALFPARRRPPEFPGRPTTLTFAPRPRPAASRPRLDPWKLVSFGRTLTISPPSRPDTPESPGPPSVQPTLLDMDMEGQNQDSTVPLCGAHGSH

For the molecule `COc1cccc2c1NC(C(=O)O)C1CC=CC21` (configuration not stated), the IC50 (commonly the concentration that inhibits the measured activity by half) in assay [1] was 25200 nM (active).

Turning to `CCc1ccc(S(=O)(=O)/N=C2\C=C(Nc3ccc(O)cc3)C(=O)c3ccccc32)cc1`, the concentration for a half-maximal effect (EC50) (commonly the concentration needed to bring the measured effect to its halfway point) with BJ [2] was 2960 nM (active); in the assay on BJ [3], 2830 nM (active).

In the case of `Cc1ccc(F)c(NC(=O)Nc2ccc(-c3cccc4[nH]nc(N)c34)cc2)c1` [LINIFANIB], the Ki – broadly, a measure of affinity in units of concentration, obtained from inhibition or displacement – in assay [4] is > 3160 nM (inactive); in assay [5] it was 126 nM (active); in assay [6], 316 nM (active).

For `COc1c(-c2nc3ccccc3[nH]2)c(O)cc2oc(C)cc(=O)c12`, the Ki on LIM domain kinase 1 is 31.6 nM (active).

For the origin of these results see ChEMBL document CHEMBL1201862, “PubChem BioAssay data set” (2004).
